Measurements reported in EP4559919A1, “TRICYCLIC-CONTAINING MACROCYCLIC COMPOUND AND USE THEREOF” (Medshine Discovery Inc., priority 2022, dated 2024).

What was measured:
CYP2C19 = target: T1, CYP2C19 (Homo sapiens, UniProt P33261); experiment: Cytochrome P450 isozyme inhibitory activity test (human liver microsomes); assay type: in vitro ADME; conditions: human liver microsomes 0.1 mg/mL
T1 construct: Mixed human liver microsomes (HLM) purchased from Corning Inc; tissue Corning Inc; host or cells: pooled human liver microsomes

TRKB = target: T2, TRKB (Homo sapiens, UniProt Q16620); experiment: In vitro kinase inhibitory activity assay, Experimental method 2 (ADP-Glo); assay type: biochemical; conditions: Experimental method 2; ATP 5.0 µM, substrate PolyE4Y1; read-out: Kinase half maximal inhibitory concentration IC50 TRKB
T2 construct: purchased Carna

ALK(G1202R/L1196M) = target: T3, ALK(G1202R/L1196M) (Homo sapiens, UniProt Q9UM73, G1202R/L1196M); experiment: as above; assay type: biochemical; conditions: Experimental method 2; ATP 5.0 µM, substrate IGF1; read-out: Kinase half maximal inhibitory concentration IC50 ALK^G1202R/L1196M
T3 construct: purchased Carna

Ba/F3-TEL-TRKB = experiment: Anti-proliferative activity test on Ba/F3 cell lines (CellTiter-Glo); assay type: cell-based; conditions: Mus musculus, BaF3; 72 hours; read-out: Half maximal inhibitory concentration IC50 for cells Ba/F3-TEL-TRKB
Procedure, shortened: (§1)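 Cells (2000/well) were exposed for 72 h at 37°C, 5% CO2, to an 8-point 3-fold series (1000× plate starting at 1 µM), with 0.1% DMSO final. Viability was read by CellTiter-Glo luminescence. Inhibition was normalised to DMSO (Max) and cell-free (Min) controls, and IC50 was taken from the curves.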

[1] = system: Ba/F3-EML4-ALK-G1202R/L1196M; experiment: as above; assay type: cell-based; conditions: Ba/F3 EML4-ALK-G1202R-L1196M; 72 hours; read-out: Half maximal inhibitory concentration IC50 for cells Ba/F3-EML4-ALK-G1202R/L1196 M
Procedure, shortened: as §1

T2 sequence (Q16620 32-822): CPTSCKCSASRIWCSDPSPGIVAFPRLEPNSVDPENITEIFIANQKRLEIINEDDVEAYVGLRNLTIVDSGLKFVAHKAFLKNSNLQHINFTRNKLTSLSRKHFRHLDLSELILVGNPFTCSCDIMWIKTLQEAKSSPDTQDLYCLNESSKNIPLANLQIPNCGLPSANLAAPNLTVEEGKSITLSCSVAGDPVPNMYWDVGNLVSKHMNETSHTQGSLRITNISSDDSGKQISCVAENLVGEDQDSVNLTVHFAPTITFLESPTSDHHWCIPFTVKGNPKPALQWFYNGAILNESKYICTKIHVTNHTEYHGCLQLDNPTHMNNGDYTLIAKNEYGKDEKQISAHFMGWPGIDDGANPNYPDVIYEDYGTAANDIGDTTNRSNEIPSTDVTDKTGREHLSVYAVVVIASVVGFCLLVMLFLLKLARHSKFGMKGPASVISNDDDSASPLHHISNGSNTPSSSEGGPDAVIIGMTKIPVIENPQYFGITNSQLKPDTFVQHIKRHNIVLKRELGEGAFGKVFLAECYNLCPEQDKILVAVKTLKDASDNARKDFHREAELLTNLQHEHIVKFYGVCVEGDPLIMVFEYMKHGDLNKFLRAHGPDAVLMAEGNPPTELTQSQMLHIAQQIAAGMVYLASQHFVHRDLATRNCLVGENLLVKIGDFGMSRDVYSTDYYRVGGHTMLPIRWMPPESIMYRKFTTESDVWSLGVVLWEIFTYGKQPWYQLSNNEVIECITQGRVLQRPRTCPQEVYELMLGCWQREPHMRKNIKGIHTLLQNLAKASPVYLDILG
T3 sequence (Q9UM73 19-1620 L1196M/G1202R): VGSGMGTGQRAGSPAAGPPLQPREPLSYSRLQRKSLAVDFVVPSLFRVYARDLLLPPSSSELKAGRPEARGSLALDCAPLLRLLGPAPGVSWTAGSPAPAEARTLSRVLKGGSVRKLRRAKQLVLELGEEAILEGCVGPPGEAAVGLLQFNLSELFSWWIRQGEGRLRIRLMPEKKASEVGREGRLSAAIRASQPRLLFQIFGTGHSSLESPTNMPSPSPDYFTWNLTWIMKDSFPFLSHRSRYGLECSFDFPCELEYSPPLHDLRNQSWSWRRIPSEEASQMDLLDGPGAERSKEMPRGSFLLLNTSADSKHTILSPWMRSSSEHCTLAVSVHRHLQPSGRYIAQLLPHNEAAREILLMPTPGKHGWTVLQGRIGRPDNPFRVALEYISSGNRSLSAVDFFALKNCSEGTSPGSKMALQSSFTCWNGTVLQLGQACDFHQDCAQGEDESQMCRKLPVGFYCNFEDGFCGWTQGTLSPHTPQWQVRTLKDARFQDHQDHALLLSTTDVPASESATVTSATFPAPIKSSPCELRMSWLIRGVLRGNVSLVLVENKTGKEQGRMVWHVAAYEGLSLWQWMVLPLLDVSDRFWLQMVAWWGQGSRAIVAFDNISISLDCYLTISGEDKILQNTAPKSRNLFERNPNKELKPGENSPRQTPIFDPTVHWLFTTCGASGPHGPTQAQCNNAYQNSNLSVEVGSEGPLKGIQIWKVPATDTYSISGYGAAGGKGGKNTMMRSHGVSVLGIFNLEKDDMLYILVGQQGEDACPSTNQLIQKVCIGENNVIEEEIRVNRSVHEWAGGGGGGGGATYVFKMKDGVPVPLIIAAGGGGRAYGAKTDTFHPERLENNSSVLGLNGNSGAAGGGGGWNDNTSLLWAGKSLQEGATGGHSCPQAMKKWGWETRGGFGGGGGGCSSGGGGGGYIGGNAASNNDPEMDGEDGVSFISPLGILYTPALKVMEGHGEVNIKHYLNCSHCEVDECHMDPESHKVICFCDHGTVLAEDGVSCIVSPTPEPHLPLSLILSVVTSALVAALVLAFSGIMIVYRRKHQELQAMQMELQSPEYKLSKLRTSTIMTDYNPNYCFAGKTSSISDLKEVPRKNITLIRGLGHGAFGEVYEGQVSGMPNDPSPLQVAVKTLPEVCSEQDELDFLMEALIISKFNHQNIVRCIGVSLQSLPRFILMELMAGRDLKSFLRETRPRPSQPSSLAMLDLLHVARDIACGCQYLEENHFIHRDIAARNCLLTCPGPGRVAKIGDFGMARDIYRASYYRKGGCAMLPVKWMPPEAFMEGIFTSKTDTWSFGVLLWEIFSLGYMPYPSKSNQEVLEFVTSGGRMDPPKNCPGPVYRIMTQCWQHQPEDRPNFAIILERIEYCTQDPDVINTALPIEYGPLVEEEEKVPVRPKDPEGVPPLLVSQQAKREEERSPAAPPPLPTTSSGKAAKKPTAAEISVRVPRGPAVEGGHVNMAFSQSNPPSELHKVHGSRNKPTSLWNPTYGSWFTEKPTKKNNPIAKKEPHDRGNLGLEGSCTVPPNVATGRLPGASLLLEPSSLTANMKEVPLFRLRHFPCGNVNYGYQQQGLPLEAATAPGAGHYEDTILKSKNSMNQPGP
T1 sequence (P33261 whole entry): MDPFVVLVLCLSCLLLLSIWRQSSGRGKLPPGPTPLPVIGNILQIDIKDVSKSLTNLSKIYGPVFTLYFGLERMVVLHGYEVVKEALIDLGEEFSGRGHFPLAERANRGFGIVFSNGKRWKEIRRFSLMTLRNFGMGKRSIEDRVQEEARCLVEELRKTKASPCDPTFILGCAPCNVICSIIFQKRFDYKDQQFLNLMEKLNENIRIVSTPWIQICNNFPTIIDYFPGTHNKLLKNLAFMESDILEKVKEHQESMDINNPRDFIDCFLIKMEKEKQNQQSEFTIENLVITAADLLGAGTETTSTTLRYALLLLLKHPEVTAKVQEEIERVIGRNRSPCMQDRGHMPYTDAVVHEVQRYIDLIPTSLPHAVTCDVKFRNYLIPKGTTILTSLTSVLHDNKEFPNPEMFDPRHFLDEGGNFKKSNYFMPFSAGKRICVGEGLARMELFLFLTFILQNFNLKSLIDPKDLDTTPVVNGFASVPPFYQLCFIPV

Cc1nn2cc3c4nc2c1C(=O)NC1(CC1)COc1ccc(F)cc1CN4[C@H](C(F)F)CO3 [Compound 016]
IC50 (CYP2C19): 22700 nM
IC50 (TRKB): 0.3 nM
IC50 (ALK(G1202R/L1196M)): 0.9 nM
IC50 (Ba/F3-TEL-TRKB): 0.6 nM
IC50 [1]: 12.5 nM
